Data reported in patent US20070048356A1, “Antimicrobial treatment of nonwoven materials for infection control” (priority 2005, published 2007).

Experiments:
Test in all cases: Dynamic Shake Flask (based on ASTM E 2149-01) on treated nonwoven
Type in all cases: cell-based
S. aureus (ATCC 6538) = settings: Table 12
[1] = tested on: P. aeruginosa (ATCC 9027); settings: Table 13
Procedure: (§1) The test organisms are grown in 25 mL appropriate broth medium for about 24±2 hours at 37±2° C. in a wrist action shaker. The bacterial culture is then transferred by placing about 100 μL aliquot in 25 mL of broth and grown again for about 24±2 hours at 37±2° C. The organisms are then centrifuged and washed three times with phosphate buffered saline (PBS). The organisms are then suspended in PBS to obtain an inoculum of approximately 1×10^8 CFU/mL.
(§2) The test articles and control swatches are exposed to an ultraviolet light source for about 5-10 minutes per side before testing to assure that the swatches are sanitized prior to inoculation with the bacteria. The test materials are brought into contact with a known population of test bacteria from the inoculum for a specified period of time. A sample is then plated at the end of the exposure time to enumerate the surviving bacteria. The log10 reduction form the control material and the original population is calculated using the following formula: Log10 Control*−Log10 CFU/swatch Test Article=Log10 Reduction
[…] This buffer solution contains a chemical to de-activate or “neutralize” the antimicrobial agent to (a) stop the active agent from killing the organisms after the designated time period and (b) to prevent artifacts that may arise from exposing the microorganisms to the antimicrobial in solution rather than solely on the substrate. Because each chemical used as an antimicrobial agent is a little different (ie: cationic, nonionic, metal, etc), a different neutralizer was likely added in each case to shut off the antimicrobial at the desired end point of the experiment. […] The neutralizer employed may be selected from a list that is commonly used in the field. […] Testing Mat.

A. Niger (ATCC 16404) = settings: Table 14, Spunbond
Procedure: as §1, §2
[…] This buffer solution contains a chemical to de-activate or “neutralize” the antimicrobial agent to (a) stop the active agent from killing the organisms after the designated time period and (b) to prevent artifacts that may arise from exposing the microorganisms to the antimicrobial in solution rather than solely on the substrate. Because each chemical used as an antimicrobial agent is a little different (ie: cationic, nonionic, metal, etc), a different neutralizer was likely added in each case to shut off the antimicrobial at the desired end point of the experiment. […] The neutralizer employed may be selected from a list that is commonly used in the field. These include, non-ionic degtergents, Bisulphate, lecithin, leethen broth, thiosulfate, thioglycolate, and pH buffers, Method similar to those described in American Society for Testing and Materials, Standard Practices for Evaluating Inactivators of Antimicrobial Agents Used in Disinfectant, Sanitizer, Antiseptic, or Preserved Products, Amer. Soc. Testing Mat. E 1054-91 (1991) can be used.

C. Albicans (ATCC 10231) = settings: Table 15, SMS

For Chitosan glycolate [1.0% Chitosan], the “Dynamic Shake Flask Log10 Reduction” value (S. aureus (ATCC 6538); Meltblown, contact time 1 min) was 0.26 Log10, the “Dynamic Shake Flask Log10 Reduction” value (S. aureus (ATCC 6538); Meltblown, contact time 5 min) was 0.21 Log10 and the “Dynamic Shake Flask Log10 Reduction” value (S. aureus (ATCC 6538); Meltblown, contact time 15 min) was 0.25 Log10. The “Dynamic Shake Flask Log10 Reduction” value (S. aureus (ATCC 6538); SMS, contact time 1 min) was 0.03 Log10, the “Dynamic Shake Flask Log10 Reduction” value (S. aureus (ATCC 6538); SMS, contact time 5 min) was 0.57 Log10 and the “Dynamic Shake Flask Log10 Reduction” value (S. aureus (ATCC 6538); SMS, contact time 15 min) was 1.03 Log10. For the same substance, the “Dynamic Shake Flask Log10 Reduction” value (S. aureus (ATCC 6538); Spunbond, contact time 1 min) was 0 Log10, the “Dynamic Shake Flask Log10 Reduction” value (S. aureus (ATCC 6538); Spunbond, contact time 5 min) was 0.64 Log10 and the “Dynamic Shake Flask Log10 Reduction” value (S. aureus (ATCC 6538); Spunbond, contact time 15 min) was 2.05 Log10. The “Dynamic Shake Flask Log10 Reduction” value ([1]; Meltblown, contact time 1 min) was 0.5 Log10, the “Dynamic Shake Flask Log10 Reduction” value ([1]; Meltblown, contact time 5 min) was 0.62 Log10 and the “Dynamic Shake Flask Log10 Reduction” value ([1]; Meltblown, contact time 15 min) was 0.61 Log10. The “Dynamic Shake Flask Log10 Reduction” value ([1]; SMS, contact time 1 min) was 0.81 Log10, the “Dynamic Shake Flask Log10 Reduction” value ([1]; SMS, contact time 5 min) was 4 Log10 and the “Dynamic Shake Flask Log10 Reduction” value ([1]; SMS, contact time 15 min) was 4 Log10. The “Dynamic Shake Flask Log10 Reduction” value ([1]; Spunbond, contact time 1 min) was 0.47 Log10, the “Dynamic Shake Flask Log10 Reduction” value ([1]; Spunbond, contact time 5 min) was 2.16 Log10 and the “Dynamic Shake Flask Log10 Reduction” value ([1]; Spunbond, contact time 15 min) was 4 Log10. The “Dynamic Shake Flask Log10 Reduction” value (A. Niger (ATCC 16404); contact time 1 min) was 0.11 Log10, the “Dynamic Shake Flask Log10 Reduction” value (A. Niger (ATCC 16404); contact time 5 min) was 0.27 Log10 and the “Dynamic Shake Flask Log10 Reduction” value (A. Niger (ATCC 16404); contact time 15 min) was 0.31 Log10. The “Dynamic Shake Flask Log10 Reduction” value (C. Albicans (ATCC 10231); contact time 1 min) was 0.04 Log10, the “Dynamic Shake Flask Log10 Reduction” value (C. Albicans (ATCC 10231); contact time 5 min) was 0.13 Log10 and the “Dynamic Shake Flask Log10 Reduction” value (C. Albicans (ATCC 10231); contact time 15 min) was 1 Log10.
With “N-Alkyl Polyglycoside [1.0% Alkyl Polyglycoside]” the “Dynamic Shake Flask Log10 Reduction” value (S. aureus (ATCC 6538); Meltblown, contact time 1 min) was 2.97 Log10, the “Dynamic Shake Flask Log10 Reduction” value (S. aureus (ATCC 6538); Meltblown, contact time 5 min) was 4 Log10 and the “Dynamic Shake Flask Log10 Reduction” value (S. aureus (ATCC 6538); Meltblown, contact time 15 min) was 4 Log10. The “Dynamic Shake Flask Log10 Reduction” value (S. aureus (ATCC 6538); SMS, contact time 1 min) was 0 Log10, the “Dynamic Shake Flask Log10 Reduction” value (S. aureus (ATCC 6538); SMS, contact time 5 min) was 0 Log10 and the “Dynamic Shake Flask Log10 Reduction” value (S. aureus (ATCC 6538); SMS, contact time 15 min) was 0 Log10. The “Dynamic Shake Flask Log10 Reduction” value (S. aureus (ATCC 6538); Spunbond, contact time 1 min) was 0 Log10, the “Dynamic Shake Flask Log10 Reduction” value (S. aureus (ATCC 6538); Spunbond, contact time 5 min) was 0 Log10 and the “Dynamic Shake Flask Log10 Reduction” value (S. aureus (ATCC 6538); Spunbond, contact time 15 min) was 0 Log10. The “Dynamic Shake Flask Log10 Reduction” value ([1]; Meltblown, contact time 1 min) was 2.38 Log10, the “Dynamic Shake Flask Log10 Reduction” value ([1]; Meltblown, contact time 5 min) was 4 Log10 and the “Dynamic Shake Flask Log10 Reduction” value ([1]; Meltblown, contact time 15 min) was 4 Log10. For the same substance, the “Dynamic Shake Flask Log10 Reduction” value ([1]; SMS, contact time 1 min) was 0.37 Log10, the “Dynamic Shake Flask Log10 Reduction” value ([1]; SMS, contact time 5 min) was 0.37 Log10 and the “Dynamic Shake Flask Log10 Reduction” value ([1]; SMS, contact time 15 min) was 0.36 Log10. For the same substance, the “Dynamic Shake Flask Log10 Reduction” value ([1]; Spunbond, contact time 1 min) was 0.61 Log10, the “Dynamic Shake Flask Log10 Reduction” value ([1]; Spunbond, contact time 5 min) was 0.41 Log10 and the “Dynamic Shake Flask Log10 Reduction” value ([1]; Spunbond, contact time 15 min) was 0.41 Log10. The “Dynamic Shake Flask Log10 Reduction” value (A. Niger (ATCC 16404); contact time 1 min) was 0.64 Log10, the “Dynamic Shake Flask Log10 Reduction” value (A. Niger (ATCC 16404); contact time 5 min) was 0.53 Log10 and the “Dynamic Shake Flask Log10 Reduction” value (A. Niger (ATCC 16404); contact time 15 min) was 0.50 Log10. For the same substance, the “Dynamic Shake Flask Log10 Reduction” value (C. Albicans (ATCC 10231); contact time 1 min) was 0.59 Log10, the “Dynamic Shake Flask Log10 Reduction” value (C. Albicans (ATCC 10231); contact time 5 min) was 0.08 Log10 and the “Dynamic Shake Flask Log10 Reduction” value (C. Albicans (ATCC 10231); contact time 15 min) was 0.19 Log10.
In the case of “PG-Hydroxyethylcellulose Cocodimonium Chloride”, the “Dynamic Shake Flask Log10 Reduction” value (S. aureus (ATCC 6538); Meltblown, contact time 1 min) was 0.09 Log10, the “Dynamic Shake Flask Log10 Reduction” value (S. aureus (ATCC 6538); Meltblown, contact time 5 min) was 0.2 Log10 and the “Dynamic Shake Flask Log10 Reduction” value (S. aureus (ATCC 6538); Meltblown, contact time 15 min) was 0.44 Log10. The “Dynamic Shake Flask Log10 Reduction” value (S. aureus (ATCC 6538); SMS, contact time 1 min) was 1.38 Log10, the “Dynamic Shake Flask Log10 Reduction” value (S. aureus (ATCC 6538); SMS, contact time 5 min) was 2.97 Log10 and the “Dynamic Shake Flask Log10 Reduction” value (S. aureus (ATCC 6538); SMS, contact time 15 min) was 4 Log10. For the same substance, the “Dynamic Shake Flask Log10 Reduction” value (S. aureus (ATCC 6538); Spunbond, contact time 1 min) was 0.33 Log10, the “Dynamic Shake Flask Log10 Reduction” value (S. aureus (ATCC 6538); Spunbond, contact time 5 min) was 0.63 Log10 and the “Dynamic Shake Flask Log10 Reduction” value (S. aureus (ATCC 6538); Spunbond, contact time 15 min) was 1.74 Log10. The “Dynamic Shake Flask Log10 Reduction” value ([1]; Meltblown, contact time 1 min) was 0.34 Log10, the “Dynamic Shake Flask Log10 Reduction” value ([1]; Meltblown, contact time 5 min) was 0.35 Log10 and the “Dynamic Shake Flask Log10 Reduction” value ([1]; Meltblown, contact time 15 min) was 0.42 Log10. The “Dynamic Shake Flask Log10 Reduction” value ([1]; SMS, contact time 1 min) was 4 Log10, the “Dynamic Shake Flask Log10 Reduction” value ([1]; SMS, contact time 5 min) was 4 Log10 and the “Dynamic Shake Flask Log10 Reduction” value ([1]; SMS, contact time 15 min) was 4 Log10. For the same substance, the “Dynamic Shake Flask Log10 Reduction” value ([1]; Spunbond, contact time 1 min) was 4 Log10, the “Dynamic Shake Flask Log10 Reduction” value ([1]; Spunbond, contact time 5 min) was 4 Log10 and the “Dynamic Shake Flask Log10 Reduction” value ([1]; Spunbond, contact time 15 min) was 4 Log10. The “Dynamic Shake Flask Log10 Reduction” value (A. Niger (ATCC 16404); contact time 1 min) was 0.00 Log10, the “Dynamic Shake Flask Log10 Reduction” value (A. Niger (ATCC 16404); contact time 5 min) was 0.01 Log10 and the “Dynamic Shake Flask Log10 Reduction” value (A. Niger (ATCC 16404); contact time 15 min) was 0.07 Log10. The “Dynamic Shake Flask Log10 Reduction” value (C. Albicans (ATCC 10231); contact time 1 min) was 1.25 Log10, the “Dynamic Shake Flask Log10 Reduction” value (C. Albicans (ATCC 10231); contact time 5 min) was 2.12 Log10 and the “Dynamic Shake Flask Log10 Reduction” value (C. Albicans (ATCC 10231); contact time 15 min) was 2.56 Log10.
